In patent publication US11076597B2, “High stress resistant plant growth regulator and preparation method and use thereof” (SHANGHAI INSTITUTES FOR BIOLOGICAL SCIENCES, CHINESE …, priority 2015, dated 2021):
“Also recorded” adds a separate entry of the source.

Assays:
[1] = biological target: T1, PYL2 receptor-HAB1 complex (Arabidopsis thaliana, UniProt O80992); assay: HAB1 phosphatase activity assay (SnRK2.6 phosphorylated polypeptide as substrate); type: biochemical; conditions: FIG. 1a-1g; 100 nM HAB1, 500 nM PYL2
T1 construct: made in house; host or cells: E. coli BL21 (DE3)
T1 sequence (O80992 14-188): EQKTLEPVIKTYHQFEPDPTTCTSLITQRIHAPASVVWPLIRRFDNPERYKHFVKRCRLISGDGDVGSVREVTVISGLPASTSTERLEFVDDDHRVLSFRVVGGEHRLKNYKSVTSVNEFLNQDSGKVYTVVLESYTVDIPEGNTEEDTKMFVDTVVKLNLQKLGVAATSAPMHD
T1 sequence (Q9CAJ0 172-511 partner limits assumed): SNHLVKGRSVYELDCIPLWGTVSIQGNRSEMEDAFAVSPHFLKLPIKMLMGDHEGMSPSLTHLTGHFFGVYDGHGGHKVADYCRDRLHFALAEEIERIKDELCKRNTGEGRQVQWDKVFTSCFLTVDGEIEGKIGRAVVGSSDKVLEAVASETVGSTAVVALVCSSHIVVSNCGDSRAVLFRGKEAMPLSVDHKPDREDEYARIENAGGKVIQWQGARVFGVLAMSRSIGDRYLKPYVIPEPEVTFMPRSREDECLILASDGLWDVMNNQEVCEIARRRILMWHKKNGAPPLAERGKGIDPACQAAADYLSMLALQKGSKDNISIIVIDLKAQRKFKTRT
Protocol: 50 mM imidazole, pH 7.2, 5 mM MgCl2, 0.1% β-mercaptoethanol, 0.5 μg·ml^−1 BSA, 100 nM HAB1 protein with a Biotin tag sequence, 500 nM PYL2 receptor protein with 6×His-SUMO dual tag sequence and the corresponding concentration of (+)-ABA/0224/0304/0706/0708/0713/0715/1028c/0428/1022B/NC0F4 were contained in the reaction system. The reaction system was incubated at room temperature for 30 minutes, followed by a further reaction for 30 minutes after adding an 11-amino acid phosphorylated polypeptide as a substrate. The phosphorylated polypeptide is amino acid 170-180 of SnRK2.6 protein kinase, wherein phosphorylated serine at position 175 (with a sequence of HSQPKpSTVGTP, purchased from Kingsley Company) was a known HAB1 dephosphorylation target site. After 30 minutes, chromogenic reagent (purchased from BioVision) was added and the absorbance at 650 nm was read on a microplate reader (Molecular Devices).

soybean = assay: Leaf transpiration experiment, soybean; type: in vivo; conditions: 20 μM spray 14 days after sowing, two days after spraying; FIG. 5
Protocol: ABA synthesis mutant aba2-1 was used in Arabidopsis leaf transpiration experiment. […] Therefore, this mutant is used to exclude the effect of endogenous ABA on the transpiration experiment. The plants were sprayed with a solution containing 0.05% tween-20 and corresponding concentrations of (+)-ABA/0224/0304/0706/0715/0428 or 0.05% Tween-20 and 0.05% DMSO (control) after three weeks of continuous watering with an amount of 1.2 ml/pot. Leaf transpiration experiments of soybeans were conducted at 26° C. with long-day lighting and soybeans were sprayed with a solution containing 0.1% tween-20 and 20 μM (+)-ABA/0224/0304 compound or 0.1% Tween-20 and 0.05% DMSO (control) 14 days after sowing with an amount of 4 ml/pot; the leaf transpiration experiments of cottons were sprayed with a solution containing 0.1% tween-20 and 20 μM (+)-ABA/0224 compound or 0.1% Tween-20 and 0.05% DMSO, respectively, 25 days after sowing with an amount of 4 ml/pot; the leaf transpiration experiments of wheats were sprayed with a solution containing 0.1% tween-20 and 100 μM (+)-ABA/0224 compound or 0.1% Tween-20 and 0.05% DMSO (control) 18 days after sowing with an amount of 6 ml/pot. Images were taken daily using the FLIR A655sc thermal imager at the same time before and after spraying.
In this experiment, the temperature change of leaf surface was observed and recorded by an infrared camera, thus reflecting the strength of plant transpiration. The stronger the transpiration, the lower the leaf temperature.

Row | Compound | inhibition of HAB1 protein phosphatase activity by promoting binding between PYL2 receptor and HAB1 [1] | leaf temperature versus DMSO control (leaf transpiration) (soybean)
1 | CCCN1C(=O)OC(C)(C)c2cc(NS(=O)(=O)Cc3c(F)c(F)c(C)c(F)c3F)ccc21 [Compound 0304] | inhibiting the activity of protein phosphatase HAB1; also recorded: inhibiting the dephosphorylation effect of HAB1 on SnRK2.6 phosphorylated polypeptide | significantly reduce the transpiration rate of soybean leaf; also recorded: still significant higher than that of plants in DMSO-sprayed control group
2 | CCCN1C(=O)OCc2cc(NS(=O)(=O)Cc3c(F)c(F)c(C)c(F)c3F)ccc21 [Compound 0428] | inhibiting the activity of protein phosphatase HAB1; also recorded: inhibiting the dephosphorylation effect of HAB1 on SnRK2.6 phosphorylated polypeptide | 
3 | Cc1c(F)c(F)c(CS(=O)(=O)Nc2ccc3c(c2)C(C)OC(=O)N3CCCF)c(F)c1F (centres unmarked) [Compound 0715] | inhibiting the activity of protein phosphatase HAB1; also recorded: inhibiting the dephosphorylation effect of HAB1 on SnRK2.6 phosphorylated polypeptide | 
4 | CCN1C(=O)OC(C)c2cc(NS(=O)(=O)Cc3c(F)c(F)c(C)c(F)c3F)ccc21 (centres unmarked) [Compound 0706] | inhibiting the activity of protein phosphatase HAB1; also recorded: inhibiting the dephosphorylation effect of HAB1 on SnRK2.6 phosphorylated polypeptide | 
5 | CCCN1C(=O)OC(C)c2cc(NS(=O)(=O)Cc3c(F)c(F)c(C)c(F)c3F)ccc21 (centres unmarked) [Compound 0224] | inhibiting the activity of protein phosphatase HAB1; also recorded: inhibiting the dephosphorylation effect of HAB1 on SnRK2.6 phosphorylated polypeptide | significantly reduce the transpiration rate of soybean leaf; also recorded: still significant higher than that of plants in DMSO-sprayed control group
6 | CC1=CC(=O)CC(C)(C)[C@@]1(O)/C=C/C(C)=C\C(=O)O [ABA, Abscisic Acid, reference compound] |  | had no difference from that in the control group
